According to patent US20120172413A1, “INCREASING LIFESPAN BY MODULATING CRTC EXPRESSION OR LOCALIZATION, AND METHODS OF SCREENING FOR MODULATORS OF SAME” (THE SALK INSTITUTE FOR BIOLOGICAL STUDIES, priority 2009, published 2012):
“Also recorded” adds a separate entry of the source. Where a name gives a salt, the structure may show the parent alone.

Legend:
[1] = tested on: CRTC-1::RFP localization in C. elegans intestinal cells; assay: CRTC-1::RFP localization during tricaine time course (microscopy); type: in vivo
Protocol: Except for tricaine time course experiments, worms were in 5 μl anesthetic mounted on 2% agarose pads on glass slides under glass cover slips. All photos were taken using a Zeiss Axiovert microscope & Axiocam. Pictures in FIGS. 2a and 3b used apotome optical sectioning. For the tricaine experiments (FIG. 4a&b), L4 worms were placed in wells of a 96 well plate in 100 μl of tetramisole/M9 with or without tricaine (2 mg/ml). Pictures were taken during time course through the 96 well plate.

[2] = tested on: CRTC-1::RFP localization in intestinal cells; assay: Kinase redundancy assay: CRTC-1::RFP localization after tricaine treatment and removal; type: in vivo, C. elegans
Protocol: Worms were subjected to RNAi for AMPK family kinases from hatch. 24 hours post L4 worms were then picked into M9 with tricaine (2 mg/ml) in wells of a […]. Worms were left on a rotational shaker at 20° C. for 2 hours. Using a glass pipette (Mair, W. A simple yet effective method to manipulate C. elegans in liquid. Worm Breeders Gazette 18 (2009)), worms were then placed onto NG plates seeded with E. coli (0P50). When tricaine solution had evaporated (approx 20 min), worms were picked onto fresh OP50 plates, 5 worms per plate. […] Time=0 was when moved to fresh OP50 plates.

[3] = aak-1 (tm1944), aak-2 (ok524) mutants (AMPK null)

Compound	effect on CRTC-1 localization ([1]; 0.1 mg/ml in M9 as anesthetic, pilot experiments)	re-location of CRTC-1::RFP to the cytosol upon drug removal [2, 3]	tricaine-induced nuclear localization of CRTC-1::RFP [2, 3]	re-location of CRTC-1::RFP to the cytosol upon drug removal ([2]; aak-1 (tm1944), aak-2 (ok524) mutants (AMPK null), listed as Tricaine)	reversibility of CRTC-1 nuclear localization after drug removal ([2]; wild type background)	CRTC-1::RFP localization ([1]; CRTC-1::RFP with calcineurin (TAX-6) binding site mutated, 60 minutes of tricaine treatment)	CRTC-1::RFP localization ([1]; tax-6 (ok2065) deletion mutant, up to 2 hours of tricaine treatment)	CRTC-1::RFP localization ([1]; wild type background, intestinal cells, tricaine (2 mg/ml) in M9)	time to CRTC-1::RFP nuclear localization ([1]; wild type background, tricaine added in M9) [min]
c1ccc(C2CN3CCSC3=N2)cc1 (stereo not drawn) [tetramisole hydrochloride]	no effect	–	–	–	–	–	–	–	–
CCOC(=O)c1cccc(N)c1 [tricaine]	–	relocated to the cytoplasm	expedited	delayed	reversible within two hours	did not shuttle into the nucleus; also recorded: no effect	invariably cytosolic; also recorded: does not respond	rapid nuclear localization	≤ 30
